Results: patent US9096832B2, “Differentiation of human embryonic stem cells” (LifeScan, Inc., priority 2007, dated 2015)

Assays:
[1] = test system: human embryonic stem cell line H9; experiment: Formation of pancreatic endocrine cells with gamma-secretase inhibitor L-685,458 (PCR); assay type: cell-based
Description: After this time interval, the cells were then treated for six days with combinations of retinoic acid and FGF as outlined in Example 2, then the culture medium was removed and replaced with medium comprising DMEM/F12 with 2% FBS, containing the γ-secretase inhibitors L-685,458 at 10 μM for three days.
Final data were expressed relative to a calibrator sample.

[2] = test system: H9P44 cells; experiment: Definitive endoderm on MEFs: growth factor combinations in low serum (FACS CXCR4, RT-PCR; Table V); assay type: cell-based, human; settings: H9P44 on MEF, Day 3, normalized to Group 1 (control)
Description: H9P44 cells were plated onto 6 well plates previously coated with mitomycin treated mouse embryonic fibroblasts (MEF). Cells were grown until 70 to 80% confluency in ES cell medium consisting of DMEM/F12 (Invitrogen/GIBCO) supplemented with 20% knockout serum replacement, 100 nM MEM nonessential amino acids, 0.5 mM beta-mercaptoethanol, 2 mM L-glutamine (all from Invitrogen/GIBCO) and 8 ng/ml human basic fibroblast growth factor (bFGF) (R&D Systems).
Growth factors were added to increasing concentration of FBS in a stepwise manner as indicated in the following regimen: • Day 0: 0% FBS in DMEM/F12 • Day 1: 0.5% FBS in DMEM/F12 • Day 2: 2% FBS in DMEM/F12. • Day 3: Cells were harvested for FACS analysis and RT-PCR.
All growth factors were purchased from R&D Systems, MN. A detailed description and concentration of growth factors for each treatment group is shown below. • 1. Control—No growth factor added • 2. […] IL-4 (10 ng/ml) • 10. SDF1a (20 ng/ml) • 11. […] BMP2 (100 ng/ml)+BMP-4 (100 ng.ml)+BMP-6 (100 ng/ml)+BMP-7 (100 ng/ml) • 13.
Cells were harvested on Day 3 of DE protocol treatment. For analysis, an aliquot of treated cells was used for RNA preparation for RT-PCR and the rest of cells used for FACS analysis.
For RT-PCR analysis, cells were analyzed for expression of selected panel of definitive endoderm markers.

[3] = test system: H9P46-P48 embryonic stem cells; experiment: Definitive endoderm on […]: effect of GSK-3B inhibitor IX (FACS CXCR4, PCR); assay type: cell-based, human; settings: day 5
Description: In order to confirm that the effect of Wnt-3a was through the Wnt pathway, a GSK-3 inhibitor was used to activate the downstream targets of Wnt, such as beta catenin. […] FIG. 29, panel a depicts the expression of CXCR4 by FACS at day 5 in the absence of Wnt-3a or GSK-3B inhibitor, b) +20 ng/ml Wnt-3a, c) +1000 nM GSK-3B inhibitor IX, d) +500 nM GSK-3B inhibitor IX, e) +100 nM GSK-3B inhibitor IX, f) +10 nM GSK-3B inhibitor IX, g) +100 nM GSK-3B inhibitor IX for days 1-2, and h) +10 nM GSK-3B inhibitor IX for days 1-2.

[4] = test system: human embryonic stem cell line H1 at passage 55; experiment: Definitive endoderm on human serum coated plates (real-time PCR); assay type: cell-based; settings: with activin A, vs activin A only
Description: Cultures of the human embryonic stem cell line H1 at passage 55 were grown and differentiated on human serum (Sigma, #H1388, MO) coated plates. 0.5 ml of human serum was added to each well of 6 well tissue culture treated dish, incubated for 1 hr at room temperature, and aspirated before adding human embryonic stem cells. […] These findings parallel our findings for human embryonic stem cells cultured on […]™ or human fibronectin coated plates.

[5] = test system: H1P54 ES cells; experiment: Evaluation of various GSK-3B inhibitors in DE formation (real-time PCR); assay type: cell-based, human; settings: 100 nM for first two days, compared to GSK-3B inhibitor VIII and XII
Description: The effectiveness of a number of commercially available GSK-3B inhibitors was evaluated in formation of DE from human embryonic stem cells. The following GSK-3B inhibitors were evaluated at 100 nM: GSK-3B inhibitor VIII (Catalog#361549, Calbiochem, CA), GSK-3B inhibitor IX (Catalog#361550, Calbiochem, CA), GSK-3B inhibitor XI (Catalog#361553, Calbiochem, CA), GSK-3B inhibitor XII (Catalog#361554, Calbiochem, CA). […] Control cultures were treated with low serum plus high dose of AA. FIG. 47, panels a and b depicts the gene expression of definitive endoderm markers at day 5. GSK-3B inhibitor IX and XI were both effective in inducing DE formation as compared to GSK-3B inhibitor VIII and XII.

[6] = test system: H9P49 embryonic stem cells; experiment: Pancreatic endoderm under feeder-free conditions: retinoic acid analogues (real-time PCR); assay type: cell-based, human
Description: At day 5, cells were collected for evaluation by FACS and real-time PCR. […] The resulting definitive endoderm cells at day 5 were exposed to the following media conditions to induce pancreatic endoderm formation: culturing in DMEM/F12 media supplemented with 2% FBS and 1 μM all-trans retinoic acid (RA) (Catalog#R2625, Sigma, MO), or 0.1-10 μM AM-580 (4-[(5,6,7,8-Tetrahydro-5,5,8,8-tetramethyl-2-naphthalenyl)carboxamido]benzoic acid, Catalog#A8843, Sigma, MO), or 0.1-1 μM TTNPB (4-[(E)-2-(5,6,7,8-Tetrahydro-5,5,8,8-tetramethyl-2-naphthalenyl)-1-propenyl]benzoic acid Arotinoid acid, Catalog#T3757, Sigma, MO) for 3 days. AM-580 and TTNPB are retinoic acid analogs with affinity for retinoic acid receptors. RA treatment was followed by additional three day treatment in DMEM/F 12 media supplemented with 2% FBS and 20-50 ng/ml bFGF (Catalog#F0291, Sigma, MO).

[7] = test system: human embryonic stem cell line H9; settings: activin A or retinoic acid alone
Description: Cultures were harvested and samples of mRNA were collected for analysis.
Cells seeded on 0.1% Matrigel (BD) coated dishes were fixed with 4% paraformaldheyde for 20 min at room temperature. Fixed cells were blocked for 1 h at room temperature with PBS/0.1%BSA/10% normal chick serum /0.5% Triton X-100 and then incubated overnight with primary antibodies in PBS/0.1%BSA/10% normal chick serum at 4° C. After three washes in PBS/0.1% BSA, fluorescent secondary antibodies at a 1:100 dilution in PBS were incubated with cells for 1 h at room temperature to allow binding. Control samples included reactions where the primary antibody was omitted or where the primary antibody was replaced with corresponding matched negative control immunoglobulins at the same concentration as the primary antibodies. […]
Real-time PCR amplification and quantitative analysis: Unless otherwise stated, all reagents were purchased from Applied Biosystems. […] For each primer/probe set, a Ct value was determined as the cycle number at which the fluorescence intensity reached a specific value in the middle of the exponential region of amplification. Relative gene expression levels were calculated using the comparative Ct method. […] The normalized amount of target was calculated as 2-ΔCt, assuming amplification to be 100% efficiency. […]

[8] = test system: H7P44 and H9P46 embryonic stem cells; experiment: Definitive endoderm on […]: role of Wnt ligands (FACS CXCR4, real-time PCR); assay type: cell-based, human; settings: low serum+AA+/-Wnt ligands, H7 and H9, five days
Description: In some of the cultures 20 ng/ml Wnt-3a (Catalog#1324-WN-002, R&D Systems, MN), 20 ng/ml Wnt-5a (Catalog#654-WN-010, R&D Systems, MN), 25 ng/ml Wnt-7a (Catalog#3008-WN-025, R&D Systems, MN), or 25 ng/ml Wnt-5b (Catalog#3006-WN-025, R&D Systems, MN) was added throughout the five day treatment. FIG. 24 depicts phase contrast images of H9P46 definitive endoderm culture in the presence of high concentration of (a) AA or (b) AA+20 ng/ml Wnt-3a. FIG. 25 depicts the expression of CXCR4 by FACS at day 5 for H7P44, and H9P46 lines cultured on […]™ (1:30 dilution) and exposed to the DE protocol+Wnt-3a (FIG. 25, panels b and d) and −Wnt-3a (FIG. 25, panels a and c).

Molecule: CC(C)C[C@H](NC(=O)[C@H](Cc1ccccc1)C[C@@H](O)[C@H](Cc1ccccc1)NC(=O)OC(C)(C)C)C(=O)N[C@@H](Cc1ccccc1)C(N)=O [L-685,458]
- NeuroD1 expression ([1]; L-685,458 10 μM): increased further
- expression of Hes-1 ([1]; L-685,458 10 μM): decrease
- time of maximal inhibition of Hes-1 expression ([1]; L-685,458 10 μM): day three post treatment
- Ngn3 expression relative to activin A alone or retinoic acid with FGFs ([1]; L-685,458 10 μM for three days): approximately 50 fold
- increase of insulin expression ([1]; L-685,458 10 μM for three days): 70 fold

Molecule: Group 9: IL-4 (10 ng/ml)
- CXCR4 relative expression [2]: 1.4
- Goosecoid relative expression [2]: 0.9
- HNF-3B relative expression [2]: 0.89
- Oct-4 relative expression [2]: 0.85
- SOX-2 relative expression [2]: 1.2
- Sox17 relative expression [2]: 1

Molecule: O=C1Nc2cc(Br)ccc2/C1=C1/Nc2ccccc2/C1=N\O [GSK-3B inhibitor IX]
- number of CXCR4 positive cells ([3]; 20 ng/ml Wnt-3a or 100-1000 nM GSK-3B inhibitor): significantly increased
- expression of CXCR4 by FACS ([3]; 10 nm GSK-3B inhibitor): very low
- expression of definitive endoderm markers [4]: Robust expression
- inducing DE formation [5]: effective

Molecule: O=C1NC(=O)C(c2cn(CCCO)c3ncccc23)=C1c1cnccn1 [GSK-3B inhibitor XI]
- inducing DE formation [5]: effective

Molecule: CC1=C(/C=C/C(C)=C/C=C/C(C)=C/C(=O)O)C(C)(C)CCC1 [retinoic acid, all-trans retinoic acid]
- foregut endoderm markers, such as CDX-2 and AFP ([6]; 1 μM RA followed by bFGF): robust expression
- pancreatic endoderm markers, such as PDX-1 ([6]; 1 μM RA followed by bFGF): significantly upregulates
- expression of Pdx1 [7]: did not induce

Molecule: CC1(C)CCC(C)(C)c2cc(C(=O)Nc3ccc(C(=O)O)cc3)ccc21 [AM-580, 4-[(5,6,7,8-Tetrahydro-5,5,8,8-tetramethyl-2-naphthalenyl)carboxamido]benzoic acid]
- AFP and CDX-2 expression ([6]; 10 μM AM-580): suppressed
- expression of PDX-1 ([6]; 10 μM AM-580): maintaining a high expression

B1: Wnt-7a: Wnt ligand, Catalog#3008-WN-025, R&D Systems (protein, UniProt O00755 32-349, looked up)
Protein Wnt-7a: LGASIICNKIPGLAPRQRAICQSRPDAIIVIGEGSQMGLDECQFQFRNGRWNCSALGERTVFGKELKVGSREAAFTYAIIAAGVAHAITAACTQGNLSDCGCDKEKQGQYHRDEGWKWGGCSADIRYGIGFAKVFVDAREIKQNARTLMNLHNNEAGRKILEENMKLECKCHGVSGSCTTKTCWTTLPQFRELGYVLKDKYNEAVHVEPVRASRNKRPTFLKIKKPLSYRKPMDTDLVYIEKSPNYCEEDPVTGSVGTQGRACNKTAPQASGCDLMCCGRGYNTHQYARVWQCNCKFHWCCYVKCNTCSERTEMYTCK
- expression of definitive endoderm markers (real-time PCR) [8]: minimal impact

B2: Wnt-5b: Wnt ligand, Catalog#3006-WN-025, R&D Systems (protein, UniProt Q9H1J7 18-359, looked up)
Protein Wnt-5b: QLLTDANSWWSLALNPVQRPEMFIIGAQPVCSQLPGLSPGQRKLCQLYQEHMAYIGEGAKTGIKECQHQFRQRRWNCSTADNASVFGRVMQIGSRETAFTHAVSAAGVVNAISRACREGELSTCGCSRTARPKDLPRDWLWGGCGDNVEYGYRFAKEFVDAREREKNFAKGSEEQGRVLMNLQNNEAGRRAVYKMADVACKCHGVSGSCSLKTCWLQLAEFRKVGDRLKEKYDSAAAMRVTRKGRLELVNSRFTQPTPEDLVYVDPSPDYCLRNESTGSLGTQGRLCNKTSEGMDGCELMCCGRGYNQFKSVQVERCHCKFHWCCFVRCKKCTEIVDQYICK
- expression of definitive endoderm markers (real-time PCR) [8]: minimal impact

B3: Group 2: Activin A (100 ng/ml) (protein, UniProt P08476 311-426, looked up)
Inhibin beta A chain: GLECDGKVNICCKKQFFVSFKDIGWNDWIIAPSGYHANYCEGECPSHIAGTSGSSLSFHSTVINHYRMRGHSPFANLKSCCVPTKLRPMSMLYYDDGQNIIKKDIQNMIVEECGCS
- CXCR4 relative expression [2]: 19.5
- Goosecoid relative expression [2]: 2.8
- HNF-3B relative expression [2]: 0.64
- Oct-4 relative expression [2]: 1.1
- SOX-2 relative expression [2]: 0.91
- Sox17 relative expression [2]: 45

B4: Wnt 5a: Wnt ligand, Catalog#654-WN-010, R&D Systems (protein, UniProt P22725 62-380, looked up)
Protein Wnt-5a: IIGAQPLCSQLAGLSQGQKKLCHLYQDHMQYIGEGAKTGIKECQYQFRHRRWNCSTVDNTSVFGRVMQIGSRETAFTYAVSAAGVVNAMSRACREGELSTCGCSRAARPKDLPRDWLWGGCGDNIDYGYRFAKEFVDARERERIHAKGSYESARILMNLHNNEAGRRTVYNLADVACKCHGVSGSCSLKTCWLQLADFRKVGDALKEKYDSAAAMRLNSRGKLVQVNSRFNSPTTQDLVYIDPSPDYCVRNESTGSLGTQGRLCNKTSEGMDGCELMCCGRGYDQFKTVQTERCHCKFHWCCYVKCKKCTEIVDQFVCK
- expression of definitive endoderm markers (real-time PCR) [8]: minimal impact
